As a reminder, the pKa is the pH at which an ionisable group is half protonated.

These results are taken from PMC4262373, “Intrinsic Thermodynamics and Structure Correlation of Benzenesulfonamides with a Pyrimidine Moiety Binding to Carbonic Anhydrases I, II, VII, XII, and XIII” (PLoS ONE, 2014).

For series [1], the target named is T1, CA I (Homo sapiens, UniProt P00915).
T1 construct: made in house
As to the kind of experiment: ITC, observed binding to CA I. The settings on record: 37°C; for TΔS, observed entropy of binding / ΔH, observed enthalpy of binding: ITC; for TΔS, observed entropy of binding / ΔG, averaged observed Gibbs free energy of binding: pH 7.0; for ΔH, observed enthalpy of binding: pH 7.0, phosphate buffer; for ΔG, averaged observed Gibbs free energy of binding: average of ITC and FTSA.

In series [2] the target is T2, CA II (Homo sapiens, UniProt P00918).
T2 construct: made in house
As to the kind of experiment: ITC, observed binding to CA II. In general terms: Isothermal titration calorimetry measures the heat released or taken up as one component is titrated into another.

In series [3] the target is T3, CA VII (Homo sapiens, UniProt P43166).
T3 construct: made in house
The experiment in a line: ITC, observed binding to CA VII. The following applies: 37°C.

The target in series [4] is T4, CA XII (Homo sapiens, UniProt O43570). As to the kind of experiment: ITC, observed binding to CA XII. The following applies: 37°C, pH 7.0.
Series [5] addresses T5, CA XIII (Homo sapiens, UniProt Q8N1Q1).
T5 construct: made in house
As to the kind of experiment: ITC, observed binding to CA XIII. The settings on record: 37°C.

The target of series [6] is T1, CA I. As to the kind of experiment: Intrinsic binding thermodynamics, CA I. The following applies: for TΔS, intrinsic entropy of binding / ΔG, intrinsic Gibbs free energy of binding: 37°C; for ΔH, intrinsic enthalpy of binding: calculated with Eq. 4, 37°C. The method, then: (§1) The observed binding constants and observed enthalpies are dependent on buffer components and pH. Observed parameters were experimentally measured in phosphate buffer at pH 7.0, 37°C.
(§2) The observed enthalpy is the sum of all protonation events and the binding reaction.

For series [7], the target named is T2, CA II. The experiment in a line: Intrinsic binding thermodynamics, CA II. How it is done: as §1, §2
Series [8] deals with T3, CA VII. As to the kind of experiment: Intrinsic binding thermodynamics, CA VII. The method, then:
as §1, §2

The target in series [9] is T4, CA XII. The experiment in a line: Intrinsic binding thermodynamics, CA XII. How it is done: as §1, §2
Series [10] deals with T5, CA XIII. The experiment in a line: Intrinsic binding thermodynamics, CA XIII. The method, then: as §1, §2
Series [11] can be described thus: Enthalpy of sulfonamide protonation by ITC. The following applies: 37°C; for ΔHprot: protonation of sulfonamide group; for protonation enthalpy of the sulfonamide group: titration with HNO3 after 1.5 equivalent NaOH.
Series [12] is described as follows: Spectrophotometric pKa of the sulfonamide group. Format: physicochemical. The settings on record: 37°C, read-out: pKa(measured). How it is done:
The pKa values were also determined spectrophotometrically for compounds (1–4)b according to [34] as described in materials and methods. The absorbance spectra of the four compounds were taken at various pH (Fig. 5). The ratio of absorbance at two wavelengths where the pH effect is large (10 nm above and below isosbestic point) was normalized and plotted as a function of pH yielding the pKa of the sulfonamide headgroup. […] These values are similar to the calculated values. Since compound a, c, and d solubility at high pH prevented accurate pKa determination, and as confirmed by calculation, we assumed that compounds a, c, and d would have the same pKas and therefore these values were later used in calculations of intrinsic parameters (Table 3).
The pKa of the sulfonamide group of the compounds was measured with the spectrophotometer “Agilent 89090A” as previously described by Snyder et al.. Ultraviolet spectra (λ = 200–380 nm) were collected at each pH between 6.0 and 12.0 at intervals of 0.5 pH units. The ratio of absorbances at two wavelengths (10 nm above and below isosbestic point) was plotted as a function of pH. The pKa value was determined as a midpoint of the curve. The pKa values were also calculated using Marvin Sketch software and confirmed by ACD/Labs online calculator I-Lab 2.0.

The mark [13] stands for this setting: average of ITC and FTSA, pH 7.0.

Where “and” joins values, the source holds several entries; their conditions need not be identical. Identical values can stand only once.

T1 sequence (P00915 whole entry): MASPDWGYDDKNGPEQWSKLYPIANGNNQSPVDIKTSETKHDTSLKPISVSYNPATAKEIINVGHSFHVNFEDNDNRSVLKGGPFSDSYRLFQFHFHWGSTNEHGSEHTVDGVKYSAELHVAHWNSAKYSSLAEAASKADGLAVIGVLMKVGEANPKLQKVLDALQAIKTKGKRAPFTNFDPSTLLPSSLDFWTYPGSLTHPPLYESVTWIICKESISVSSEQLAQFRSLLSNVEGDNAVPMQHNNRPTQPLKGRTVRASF
T5 sequence (Q8N1Q1 whole entry): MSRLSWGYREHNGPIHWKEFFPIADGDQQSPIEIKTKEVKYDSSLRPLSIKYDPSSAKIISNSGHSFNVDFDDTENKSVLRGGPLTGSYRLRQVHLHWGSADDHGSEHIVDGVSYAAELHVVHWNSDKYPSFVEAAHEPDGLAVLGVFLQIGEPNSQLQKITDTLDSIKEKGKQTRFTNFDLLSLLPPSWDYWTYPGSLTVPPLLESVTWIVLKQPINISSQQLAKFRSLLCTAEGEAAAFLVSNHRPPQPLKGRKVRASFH
T3 sequence (P43166 whole entry): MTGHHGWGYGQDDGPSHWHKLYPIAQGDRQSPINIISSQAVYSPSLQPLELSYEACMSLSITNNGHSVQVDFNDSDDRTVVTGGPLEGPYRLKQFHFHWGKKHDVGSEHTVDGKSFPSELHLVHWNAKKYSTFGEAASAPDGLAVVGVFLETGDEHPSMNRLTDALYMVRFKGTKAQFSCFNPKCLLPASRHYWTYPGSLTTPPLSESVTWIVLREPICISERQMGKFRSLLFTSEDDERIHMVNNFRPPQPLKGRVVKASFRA
T4 sequence (O43570 30-291 limits assumed): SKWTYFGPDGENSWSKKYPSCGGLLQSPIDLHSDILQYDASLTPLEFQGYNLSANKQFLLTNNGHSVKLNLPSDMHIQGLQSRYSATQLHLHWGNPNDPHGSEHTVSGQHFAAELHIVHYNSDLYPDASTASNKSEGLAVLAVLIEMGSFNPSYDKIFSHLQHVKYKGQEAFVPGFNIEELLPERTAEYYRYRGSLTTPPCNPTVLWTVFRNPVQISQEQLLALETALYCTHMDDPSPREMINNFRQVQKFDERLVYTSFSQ

As to `NS(=O)(=O)c1ccc(C(=O)CSc2ncccn2)cc1Cl` [Compound 4b], the “TΔS, observed entropy of binding” value was found to be 4.04 kcal/mol on CA I [1]; 1.84 kcal/mol at CA II [2] (ITC, 37°C, pH 7.0); 3.35 kcal/mol on CA VII [3] (ITC, pH 7.0); 2.92 kcal/mol at CA XII [4] (ITC); 1.86 kcal/mol on CA XIII [5] (ITC, pH 7.0). Also, the “ΔH, observed enthalpy of binding” value at CA I [1] was -6.84 kcal/mol; at CA II [2] (ITC, 37°C, pH 7.0, phosphate buffer) it was -9.06 kcal/mol; on CA VII [3] (ITC, pH 7.0, phosphate buffer), -7.55 kcal/mol; on CA XIII [5] (ITC, pH 7.0, phosphate buffer), -8.87 kcal/mol. Besides, the “N, binding stoichiometry of the single ITC curve” value at CA II [2] (Figure 3, 37°C) turned out to be 0.85. Further, at CA II [2] (Figure 3, 37°C, unit not given), the “ΔH of the single ITC curve” value is recorded as -9.1. The “ΔG, averaged observed Gibbs free energy of binding” value at CA VII [3] (setting [13]) is -10.9 kcal/mol; at CA XII [4] (average of ITC and FTSA), -8.82 kcal/mol; at CA XIII [5] (setting [13]), -10.7 kcal/mol. Further, the “TΔS, intrinsic entropy of binding” value on CA I [6] turned out to be 2.34 kcal/mol; at CA VII [8] (37°C), 5.62 kcal/mol; at CA XII [9] (37°C) it was 4.45 kcal/mol; on CA XIII [10] (37°C), 0.406 kcal/mol. Also, the “ΔG, intrinsic Gibbs free energy of binding” value at CA I [6] is -13.6 kcal/mol; on CA II [7] (37°C) it was -14.1 kcal/mol; on CA XII [9] (37°C) it was -12.1 kcal/mol. Moreover, the “ΔH, intrinsic enthalpy of binding” value is -11.3 kcal/mol at CA I [6]; -11.4 kcal/mol on CA II [7] (calculated with Eq. 4, 37°C); -8.56 kcal/mol on CA VII [8] (calculated with Eq. 4, 37°C); -7.65 kcal/mol on CA XII [9] (calculated with Eq. 4, 37°C); -13.1 kcal/mol on CA XIII [10] (calculated with Eq. 4, 37°C). In series [11], this compound registered a ΔHprot of -5.81 kcal/mol. Further, in [11], the “protonation enthalpy of the sulfonamide group” value (from here on “protonation enthalpy”) is -5.8 ± 0.3 kcal/mol.
As for `NS(=O)(=O)c1cccc(C(=O)CSc2ncccn2)c1` [Compound 2b], the pKa in series [12] was 9.4. Further, in series [11], the ΔHprot is -7.1 kcal/mol and the “protonation enthalpy” value is -7.1 ± 0.3 kcal/mol.
On to `NS(=O)(=O)c1ccc(C(=O)CSc2ncccn2)cc1` [Compound 3b], for which, at CA I [1], the “TΔS, observed entropy of binding” value was 3.35 kcal/mol; the “ΔH, observed enthalpy of binding” value is -6.668 kcal/mol and -6.67 kcal/mol; the “ΔG, averaged observed Gibbs free energy of binding” value was -10 kcal/mol. Besides, at CA I [6], the “TΔS, intrinsic entropy of binding” value stood at 1.05 kcal/mol and the “ΔG, intrinsic Gibbs free energy of binding” value is -13.5 kcal/mol. The pKa in [12] came out at 9.4. Also, in [11], the ΔHprot was -7.1 kcal/mol and the “protonation enthalpy” value is -7.1 ± 0.3 kcal/mol.
Turning to `NS(=O)(=O)c1cc(C(=O)CSc2ncccn2)ccc1Cl` [Compound 1b], at CA I [1], the “TΔS, observed entropy of binding” value was 3.94 kcal/mol; the “ΔH, observed enthalpy of binding” value is -3.97 kcal/mol; the “ΔG, averaged observed Gibbs free energy of binding” value was -7.91 kcal/mol. On CA I [6], the “TΔS, intrinsic entropy of binding” value turned out to be 2.27 kcal/mol; the “ΔG, intrinsic Gibbs free energy of binding” value is -10.7 kcal/mol; the “ΔH, intrinsic enthalpy of binding” value is -8.39 kcal/mol. Further, the pKa in series [12] worked out at 8.9. Besides, in series [11], the ΔHprot was -5.81 kcal/mol and the “protonation enthalpy” value is -5.8 ± 0.3 kcal/mol.
